Here are results for ten compounds from patent publication US7700590B2, “Antibacterial agents” (University of New Orleans Research and Technology …, priority 2006, dated 2010).

Holding throughout (format): cell-based
The test system of one test is Bacillus subtilis PY79. Briefly: Antibacterial growth inhibition assay (serial dilution, colorimeter at 600 nm), B. subtilis PY79. To be noted: 50% growth inhibition; serial dilution 238-0.46 μg/ml. As for the experimental part: (§1) The antibacterial activities of the compounds synthesized as described above were evaluated by assay against several strains of Gram positive bacteria from the American Type Culture Collection (ATCC), Staphylococcus aureus 29213, Staphylococcus aureus 43300, Enterococcus faecalis 29212, and Bacillus subtilis PY79. The minimum inhibition concentration (MIC, μg/mL) of each compound synthesized was tested against four bacterial strains. The inhibition of bacterial growth was monitored using a standard colorimeter at 600 nm using a serial dilution at concentrations 238, 119, 59.5, 29.8, 14.9, 7.44, 3.72, 1.86, 0.93, 0.46 μg/ml. Chloramphenicol was tested as a control, and inhibits bacteria growth (MIC90) at 7.44, 7.44, 4.0, 2.0 μg/mL, respectively, for the four bacterial strains listed in Table 1. In Table 1, the MICs are reported as the concentrations at 50% inhibition of bacteria growth, and N stands for no inhibition.

Test [1] relates to Enterococcus faecalis 29212. Briefly: Antibacterial growth inhibition assay (serial dilution, colorimeter at 600 nm), E. faecalis 29212. Conditions: 50% growth inhibition; vancomycin susceptible strain; serial dilution 238-0.46 μg/ml. As for the experimental part: as §1
For test [2], the system named is Staphylococcus aureus 29213. The test can be described thus: Antibacterial growth inhibition assay (serial dilution, colorimeter at 600 nm), S. aureus 29213. Conditions: 50% growth inhibition; methicillin susceptible strain; serial dilution 238-0.46 μg/ml. As for the experimental part:
as §1

In test [3] the test system is Staphylococcus aureus 43300. The test can be described thus: Antibacterial growth inhibition assay (serial dilution, colorimeter at 600 nm), S. aureus 43300. The arrangement: key to MIC, concentration at 50% inhibition of bacteria growth, S. aureus 43300: N stands for no inhibition. To be noted: 50% growth inhibition; methicillin resistant strain; serial dilution 238-0.46 μg/ml. How it is done:
as §1

For `CCN1CC[C@@H](CN(Cc2ccccc2)Cc2ccccc2[N+](=O)[O-])OC1=O` [Compound A3], in the test with Bacillus subtilis PY79, the “MIC, concentration at 50% inhibition of bacteria growth, B. subtilis PY79” value stood at 100 µg/mL. Also, the “MIC, concentration at 50% inhibition of bacteria growth, E. faecalis 29212” value in test [1] turned out to be 43.0 µg/mL. The “MIC, concentration at 50% inhibition of bacteria growth, S. aureus 29213” value in test [2] was 72.0 µg/mL. In addition, the “MIC, concentration at 50% inhibition of bacteria growth, S. aureus 43300” value in test [3] was determined as 100 µg/mL.
On to `CN1CC[C@@H](CN(Cc2ccccc2)Cc2cccc(C#N)c2)OC1=O` [Compound B5], for which the “MIC, concentration at 50% inhibition of bacteria growth, B. subtilis PY79” value in the test with Bacillus subtilis PY79 amounted to 180 µg/mL. In addition, the “MIC, concentration at 50% inhibition of bacteria growth, E. faecalis 29212” value in test [1] stood at 7.40 µg/mL. Also, the “MIC, concentration at 50% inhibition of bacteria growth, S. aureus 29213” value in test [2] amounted to 180 µg/mL. Also, the “MIC, concentration at 50% inhibition of bacteria growth, S. aureus 43300” value in test [3] worked out at 238 µg/mL.
As for `CCN1CC[C@@H](CN(Cc2ccccc2)Cc2ccc(C#N)cc2)OC1=O` [Compound A4], the “MIC, concentration at 50% inhibition of bacteria growth, B. subtilis PY79” value in the test on Bacillus subtilis PY79 was 10.0 µg/mL. In addition, the “MIC, concentration at 50% inhibition of bacteria growth, E. faecalis 29212” value in test [1] amounted to 12.0 µg/mL. In addition, the “MIC, concentration at 50% inhibition of bacteria growth, S. aureus 29213” value in test [2] was found to be 180 µg/mL. Moreover, the “MIC, concentration at 50% inhibition of bacteria growth, S. aureus 43300” value in test [3] was found to be 59.5 µg/mL.
Turning to `CN1CC[C@@H](CN(Cc2ccccc2)Cc2ccccc2C#N)OC1=O` [Compound B6], in the test with Bacillus subtilis PY79, the “MIC, concentration at 50% inhibition of bacteria growth, B. subtilis PY79” value was 180 µg/mL. Also, in test [1], the “MIC, concentration at 50% inhibition of bacteria growth, E. faecalis 29212” value turned out to be 59.5 µg/mL. For the same compound, the “MIC, concentration at 50% inhibition of bacteria growth, S. aureus 29213” value in test [2] turned out to be 166 µg/mL. Also, the “MIC, concentration at 50% inhibition of bacteria growth, S. aureus 43300” value in test [3] was 180 µg/mL.
`CCN1CC[C@@H](CN(Cc2ccccc2)Cc2ccc(F)cc2)OC1=O` [Compound A7]: in the test on Bacillus subtilis PY79, the “MIC, concentration at 50% inhibition of bacteria growth, B. subtilis PY79” value turned out to be 42.5 µg/mL. In addition, the “MIC, concentration at 50% inhibition of bacteria growth, E. faecalis 29212” value in test [1] was found to be 35.0 µg/mL. The “MIC, concentration at 50% inhibition of bacteria growth, S. aureus 29213” value in test [2] stood at 64.0 µg/mL. Moreover, the “MIC, concentration at 50% inhibition of bacteria growth, S. aureus 43300” value in test [3] was 47.0 µg/mL.
On the same counts, the results for `CCN1CC[C@@H](CN(Cc2ccccc2)Cc2cccc(C#N)c2)OC1=O` [Compound A5] are 238 µg/mL, 45.0 µg/mL, 238 µg/mL and “N”.
Consider `CN1CC[C@@H](CN(Cc2ccccc2)Cc2cccc([N+](=O)[O-])c2)OC1=O` [Compound B2], for which, in the test on Bacillus subtilis PY79, the “MIC, concentration at 50% inhibition of bacteria growth, B. subtilis PY79” value is 238 µg/mL. For the same compound, in test [1], the “MIC, concentration at 50% inhibition of bacteria growth, E. faecalis 29212” value is 119 µg/mL. Moreover, in test [2], the “MIC, concentration at 50% inhibition of bacteria growth, S. aureus 29213” value is 138 µg/mL. The “MIC, concentration at 50% inhibition of bacteria growth, S. aureus 43300” value in test [3] is “N”.
Regarding `CCN1CC[C@@H](CN(Cc2ccccc2)Cc2c(F)cccc2F)OC1=O` [Compound A9], the “MIC, concentration at 50% inhibition of bacteria growth, B. subtilis PY79” value with Bacillus subtilis PY79 was 77.0 µg/mL. In test [1], the “MIC, concentration at 50% inhibition of bacteria growth, E. faecalis 29212” value turned out to be 59.5 µg/mL. Further, the “MIC, concentration at 50% inhibition of bacteria growth, S. aureus 29213” value in test [2] came out at 47.0 µg/mL. For the same compound, the “MIC, concentration at 50% inhibition of bacteria growth, S. aureus 43300” value in test [3] came out at 70.0 µg/mL.
As to `CN1CC[C@@H](CN(Cc2ccccc2)Cc2ccc([N+](=O)[O-])cc2)OC1=O` [Compound B1], the “MIC, concentration at 50% inhibition of bacteria growth, B. subtilis PY79” value in the test on Bacillus subtilis PY79 turned out to be 98.0 µg/mL. For the same compound, the “MIC, concentration at 50% inhibition of bacteria growth, E. faecalis 29212” value in test [1] worked out at 119 µg/mL. Further, in test [2], the “MIC, concentration at 50% inhibition of bacteria growth, S. aureus 29213” value amounted to 81.0 µg/mL. In test [3], the “MIC, concentration at 50% inhibition of bacteria growth, S. aureus 43300” value is “N”.
On the same counts, the results for `CCN1CC[C@@H](CN(Cc2ccccc2)Cc2ccc(F)cc2F)OC1=O` [Compound A8] are 38.0 µg/mL, 59.5 µg/mL, 45.0 µg/mL and 50.5 µg/mL.
